In assay [1] the test system is cell samples from AML patients with actual NRAS mutants. The conditions noted are these: cited from earlier work.
Assay [2] has as its system preclinical leukemia models. To be noted: cited from earlier work.
A further assay has as its system OCI-AML3 (N-Ras Q61L). Put plainly: Proliferation inhibitory activity, OCI-AML3. It is filed as cell-based. The conditions noted are these: Homo sapiens, OCI-AML-3; OCI-AML3 (N-Ras Q61L) cell line; read-out: Proliferation inhibitory efficacy (GI50, μM) OCI-AML3 (N-Ras Q61L). As to the method: (§1) GI50 values were calculated by measuring the proliferation inhibitory efficacy of the compounds of the present invention on mt-NRAS (G12D) Ba/F3, U937 (wt-NRAS) and OCI-AML3 (mt-NRAS) cell lines.
Accordingly, the compounds of the present invention are particularly effective as a therapeutic agent for acute myelogenous leukemia (AML).

The next assay deals with Ba/F3 (N-Ras G12D). In words: Proliferation inhibitory activity, Ba/F3. It is filed as cell-based. The conditions noted are these: Mus musculus, BaF3; Ba/F3 (N-Ras G12D) cell line; read-out: Proliferation inhibitory efficacy (GI50, μM) Ba/F3 (N-Ras G12D). As for the experimental part: as §1
The test system of the next assay is U937 (N-Ras WT). In words: Proliferation inhibitory activity, U937. To be noted: Homo sapiens, U-937; U937 (N-Ras WT) cell line; read-out: Proliferation inhibitory efficacy (GI50, μM) U937 (N-Ras WT). It is filed as cell-based. As for the experimental part: as §1
The target in another assay is T1, GCK (Homo sapiens, UniProt Q12851).
T1 sequence (Q12851 1-820): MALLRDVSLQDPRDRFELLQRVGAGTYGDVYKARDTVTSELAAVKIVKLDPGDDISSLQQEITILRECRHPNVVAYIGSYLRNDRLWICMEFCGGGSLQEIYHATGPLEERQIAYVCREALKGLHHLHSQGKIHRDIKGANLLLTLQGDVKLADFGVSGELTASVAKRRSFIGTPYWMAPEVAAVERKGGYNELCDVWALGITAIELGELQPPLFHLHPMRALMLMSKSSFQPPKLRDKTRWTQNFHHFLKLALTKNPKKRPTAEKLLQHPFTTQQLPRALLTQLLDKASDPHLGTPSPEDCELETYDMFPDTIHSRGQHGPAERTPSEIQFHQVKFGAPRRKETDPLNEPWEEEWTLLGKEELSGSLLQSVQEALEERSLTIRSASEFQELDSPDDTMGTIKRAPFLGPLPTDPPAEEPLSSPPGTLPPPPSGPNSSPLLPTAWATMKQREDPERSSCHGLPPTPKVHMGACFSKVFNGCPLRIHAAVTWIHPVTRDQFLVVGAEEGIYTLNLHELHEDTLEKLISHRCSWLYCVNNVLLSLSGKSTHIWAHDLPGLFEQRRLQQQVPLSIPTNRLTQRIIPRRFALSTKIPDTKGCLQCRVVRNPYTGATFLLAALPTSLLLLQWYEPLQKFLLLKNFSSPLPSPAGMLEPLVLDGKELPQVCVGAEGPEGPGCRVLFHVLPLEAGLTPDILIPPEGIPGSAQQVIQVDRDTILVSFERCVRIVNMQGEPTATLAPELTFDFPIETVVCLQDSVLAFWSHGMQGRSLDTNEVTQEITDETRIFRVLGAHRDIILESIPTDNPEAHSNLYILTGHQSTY
In words: GCK kinase inhibitory activity. In kind it is biochemical. To be noted: read-out: Kinase inhibitory efficacy, GI50 GCK. As for the experimental part: (§2) GI50 values were calculated by measuring the inhibitory efficacy of the compounds of the present invention against both GCK and ACK1 kinases.

A further assay deals with ACK1 (Homo sapiens, UniProt Q07912). In words: ACK1 kinase inhibitory activity. In kind it is biochemical. To be noted: read-out: Kinase inhibitory efficacy, GI50 ACK1. As to the method: as §2

A value given as a limit tells only on which side of the number the result lay.

ACK1, sequence (Q07912 whole entry): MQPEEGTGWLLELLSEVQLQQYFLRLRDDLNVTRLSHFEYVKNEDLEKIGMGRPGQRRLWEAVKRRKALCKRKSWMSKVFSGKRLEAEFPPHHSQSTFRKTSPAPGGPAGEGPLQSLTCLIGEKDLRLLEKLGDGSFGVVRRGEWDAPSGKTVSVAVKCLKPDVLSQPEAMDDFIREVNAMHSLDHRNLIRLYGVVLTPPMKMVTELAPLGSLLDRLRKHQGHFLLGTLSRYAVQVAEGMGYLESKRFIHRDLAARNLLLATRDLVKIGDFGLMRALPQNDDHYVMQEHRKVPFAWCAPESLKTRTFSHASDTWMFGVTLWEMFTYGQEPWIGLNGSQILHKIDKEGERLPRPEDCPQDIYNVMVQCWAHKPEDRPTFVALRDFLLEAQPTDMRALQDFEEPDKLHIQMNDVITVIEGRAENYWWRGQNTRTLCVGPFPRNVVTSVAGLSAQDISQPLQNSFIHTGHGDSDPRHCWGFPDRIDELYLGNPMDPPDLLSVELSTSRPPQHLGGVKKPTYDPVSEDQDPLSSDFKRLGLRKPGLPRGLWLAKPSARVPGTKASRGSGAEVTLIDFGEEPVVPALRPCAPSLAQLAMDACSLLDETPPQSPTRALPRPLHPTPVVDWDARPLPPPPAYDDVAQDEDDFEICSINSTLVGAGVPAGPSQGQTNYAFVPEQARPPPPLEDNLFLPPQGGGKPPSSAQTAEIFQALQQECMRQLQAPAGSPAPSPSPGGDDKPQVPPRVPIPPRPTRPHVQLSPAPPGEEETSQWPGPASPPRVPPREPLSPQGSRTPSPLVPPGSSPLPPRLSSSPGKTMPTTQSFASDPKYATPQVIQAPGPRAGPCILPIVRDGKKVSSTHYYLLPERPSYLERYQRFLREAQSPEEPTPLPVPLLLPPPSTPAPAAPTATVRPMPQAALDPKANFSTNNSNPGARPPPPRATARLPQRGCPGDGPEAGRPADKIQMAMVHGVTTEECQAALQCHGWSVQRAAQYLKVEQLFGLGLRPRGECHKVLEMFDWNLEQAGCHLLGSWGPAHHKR

In the case of `Cc1ccc(Nc2ncc3c(n2)N(C)C(=O)N(c2cc(NC(=O)c4cccc(C(F)(F)F)c4)ccc2C)C3)cn1` [GNF 7], the “efficacy in cell samples from AML patients” value in assay [1] is listed as “exhibited its efficacy”. The “inhibitory effects in preclinical leukemia models” value in assay [2] is recorded as “inhibitory effects in preclinical leukemia models have been observed”.

As to `CCN1CCN(c2ccc(Nc3ncc4c(n3)N(C)C(=O)N(c3cc(NC(=O)Nc5ccccc5OC)ccc3C)C4)cn2)CC1` [Compound No. 17, 1-(3-(7-((6-(4-ethylpiperazin-1-yl)pyridin-3-yl)amino)-1-methyl-2-oxo-1,4-dihydropyrimido[4,5-d]pyrimidin-3(2H)-yl)-4-methylphenyl)-3-(2-methoxyphenyl)urea], the GI50 in the assay with OCI-AML3 (N-Ras Q61L) is less than 0.5 µM; in the assay with Ba/F3 (N-Ras G12D), less than 0.5 µM; in the assay with U937 (N-Ras WT), 0.5 to 3 µM; on GCK, less than 30 nM; on ACK1 it was less than 30 nM.

Regarding `Cc1ccc(Nc2ncc3c(n2)N(C)C(=O)N(c2cc(NC(=O)Nc4ccccc4)ccc2C)C3)cn1` [Compound No. 2, 1-(4-methyl-3-(1-methyl-7-((6-methylpyridin-3-yl)amino)-2-oxo-1,4-dihydropyrimido[4,5-d]pyrimidin-3(2H)-yl)phenyl)-3-phenylurea], the GI50 in the assay on OCI-AML3 (N-Ras Q61L) was 0.5 to 3 µM; in the assay on Ba/F3 (N-Ras G12D), 0.5 to 3 µM; in the assay with U937 (N-Ras WT), not below 5 µM; on GCK it was 100 to 300 nM; at ACK1, less than 30 nM.
